Experimental data as given in ChEMBL document CHEMBL1201862, “PubChem BioAssay data set” (2004).
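Interpolation was linear, between the two tested concentrations surrounding the appropriate level; five concentrations were tested over 48 hours in 96-well plates. Here, GI50 denotes the concentration required for 50% inhibition of growth.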 The source made the active and inactive calls. Cut-off read from the data, not from the text of the source: active = GI50 up to about 1.1 µM and inactive = higher.

Tests used:
Experiment in all cases: growth of human tumour cells (NCI), 48 h
[1] = test system: RXF 393
[2] = test system: UO-31
[3] = test system: CAKI-1
[4] = test system: SF-295
[5] = test system: A549
[6] = test system: OVCAR-4
[7] = test system: MCF7
[8] = test system: MOLT-4
[9] = test system: K562
[10] = test system: SF-268
[11] = test system: SNB-75
[12] = test system: Hs-578T
[13] = test system: NCI-H522
[14] = test system: NCI-H23
[15] = test system: SK-MEL-5
[16] = test system: NCI/ADR-RES
[17] = test system: SK-MEL-2
[18] = test system: NCI-H460
[19] = test system: HOP-62
[20] = test system: OVCAR-3
[21] = test system: IGROV-1
[22] = test system: UACC-257
[23] = test system: SNB-19
[24] = test system: HCT-116
[25] = test system: OVCAR-5
[26] = test system: SF-539
[27] = test system: SK-OV-3
[28] = test system: PC-3
[29] = test system: UACC-62
[30] = test system: MDA-MB-231
[31] = test system: OVCAR-8
[32] = test system: SW-620
[33] = test system: M14
[34] = test system: ACHN
[35] = test system: RPMI-8226
[36] = test system: HCC 2998
[37] = test system: EKVX
[38] = test system: U-251
[39] = test system: 786-0
[40] = test system: KM12
[41] = test system: NCI-H226
[42] = test system: COLO 205
[43] = test system: SR
[44] = test system: HCT-15
[45] = test system: Malme-3M
[46] = test system: HL-60
[47] = test system: CCRF-CEM
[48] = test system: BT-549
[49] = test system: HOP-92
[50] = test system: HT-29
[51] = test system: SK-MEL-28
[52] = test system: TK-10
[53] = test system: MDA-MB-435
[54] = test system: A498
[55] = test system: DU-145

Cc1cccc(/N=N/c2ccc(/N=N/c3c(O)ccc4ccccc34)cc2C)c1 was tested, and the GI50 [1] was 27 µM (inactive), the GI50 [2] was > 100 µM (inactive) and the GI50 [3] was 40.2 µM (inactive). For the same molecule, the GI50 [4] was 44.2 µM (inactive), the GI50 [5] was 80 µM (inactive) and the GI50 [6] was > 100 µM (inactive). The GI50 [7] was > 100 µM (inactive), the GI50 [8] was > 100 µM (inactive) and the GI50 [9] was > 100 µM (inactive). The GI50 [10] was > 100 µM (inactive), the GI50 [11] was 0.144 µM (active) and the GI50 [12] was 33.9 µM (inactive). For the same molecule, the GI50 [13] was 14.2 µM (inactive), the GI50 [14] was > 100 µM (inactive) and the GI50 [15] was > 100 µM (inactive). For the same molecule, the GI50 [16] was 13.4 µM (inactive), the GI50 [17] was > 100 µM (inactive) and the GI50 [18] was > 100 µM (inactive). For the same molecule, the GI50 [19] was 22.4 µM (inactive), the GI50 [20] was > 100 µM (inactive) and the GI50 [21] was > 100 µM (inactive). The GI50 [22] was > 100 µM (inactive), the GI50 [23] was 38.2 µM (inactive) and the GI50 [24] was > 100 µM (inactive). For the same molecule, the GI50 [25] was > 100 µM (inactive), the GI50 [26] was 36.2 µM (inactive) and the GI50 [27] was 28.4 µM (inactive). For the same molecule, the GI50 [28] was 88.3 µM (inactive), the GI50 [29] was 72.4 µM (inactive) and the GI50 [30] was > 100 µM (inactive). The GI50 [31] was 7.05 µM (inactive), the GI50 [32] was > 100 µM (inactive) and the GI50 [33] was 41.7 µM (inactive). The GI50 [34] was 49.3 µM (inactive), the GI50 [35] was > 100 µM (inactive) and the GI50 [36] was > 100 µM (inactive). The GI50 [37] was 84.7 µM (inactive), the GI50 [38] was 54.2 µM (inactive) and the GI50 [39] was 83.6 µM (inactive). The GI50 [40] was > 100 µM (inactive), the GI50 [41] was > 100 µM (inactive) and the GI50 [42] was > 100 µM (inactive). For the same molecule, the GI50 [43] was 21.4 µM (inactive), the GI50 [44] was over 100 µM and the GI50 [45] was 2 µM (inactive). The GI50 [46] was 33.5 µM (inactive), the GI50 [47] was > 100 µM (inactive) and the GI50 [48] was > 100 µM (inactive). For the same molecule, the GI50 [49] was 32.2 µM (inactive), the GI50 [50] was > 100 µM (inactive) and the GI50 [51] was > 100 µM (inactive). For the same molecule, the GI50 [52] was > 100 µM (inactive) and the GI50 [53] was > 100 µM (inactive).
With C#CCn1c(=O)c(I)cn(/C(=C\C(=O)OCC)C(=O)OCC)c1=O the GI50 [4] was 18.7 µM (inactive), the GI50 [5] was 34.8 µM (inactive) and the GI50 [11] was 17.1 µM (inactive). For the same molecule, the GI50 [12] was 49.8 µM (inactive), the GI50 [16] was 26.1 µM (inactive) and the GI50 [17] was 18.9 µM (inactive). For the same molecule, the GI50 [18] was 20.3 µM (inactive), the GI50 [19] was 17.4 µM (inactive) and the GI50 [23] was 26.9 µM (inactive). The GI50 [25] was 20.6 µM (inactive), the GI50 [26] was 18.4 µM (inactive) and the GI50 [27] was 17.9 µM (inactive). For the same molecule, the GI50 [29] was 16.9 µM (inactive), the GI50 [38] was 15.7 µM (inactive) and the GI50 [40] was 17.3 µM (inactive). The GI50 [41] was 17.9 µM (inactive), the GI50 [54] was 16.7 µM (inactive) and the GI50 [55] was 17.5 µM (inactive). For the same molecule, the GI50 [53] was 17.1 µM (inactive).
With COc1cc(CNc2nc3cc(N)cc(N)c3nc2-c2ccccc2)cc(OC)c1 the GI50 [22] was 26.1 µM (inactive) and the GI50 [35] was 2.2 µM (inactive).
